Assay results published in PubChem BioAssay AID2305 (GlaxoSmithKline (GSK), 2010).

What follows are molecules tested on P. falciparum 3D7 growth, pLDH absorbance (assay: P. falciparum 3D7 growth inhibition, dose response, strain 3D7 (AID 2305)).
`COc1ccc(N2CCN(CCCCNC(=O)c3ccc(NC(=O)c4ccc(Cl)cc4)cc3)CC2)c(OC)c1` gave an IC50 of 950 nM. For `CCC(CC)(Cc1ccccc1)NC(=O)[C@H](CC1CCCCC1)Nc1ccc(C#N)c2ccccc12`, the IC50 was 630 nM. In the case of `OCCN1CCN(C(=S)Nc2ccccc2)CC1`, the IC50 is reported as 940 nM. `CCCCCCCc1cc(=O)c2ccccc2[nH]1` gave an IC50 of 320 nM. `COc1cc(F)c2ncc(F)c(CCN3C[C@H](CNCc4ccc5c(n4)NC(=O)CS5)[C@H](O)C3)c2c1` was tested, and the IC50 was 460 nM. Molecule `Cc1ccccc1Nc1nc(NCc2ccccc2)nc2ccccc12` has an IC50 of 1020 nM. `CC1CCN(CCCNc2ccc(C(=O)Nc3ccc(C(F)(F)F)cc3)cc2[N+](=O)[O-])CC1` showed an IC50 of 340 nM. `CC(C)(C)c1ccc(Cc2cccc3nc(N)nc(N)c23)cc1` was tested, and the IC50 was 830 nM. Molecule `S=C(NCCN1CCOCC1)Nc1ccccc1` has an IC50 of 1020 nM. Work on `O=C(NCC1CCN(CCN2CCc3ccc4c(c3C2)OCO4)CC1)c1ccc(-c2ccc(C(F)(F)F)cc2)cc1` yielded an IC50 of 860 nM. `Cc1ccc(NC(=O)Nc2ccc(S(=O)(=O)c3ccc(NC(=O)Nc4ccc(C)c(Cl)c4)cc3)cc2)cc1Cl` was tested, and the IC50 was 750 nM. In the case of `CCCNCc1ccc(-c2ccc(CN(Cc3cnc(C)cn3)C(=O)CC#N)cc2)nc1`, the IC50 is reported as 1220 nM. Molecule `CCN1CCN(c2cc(C)c3cc(NC(=O)c4cccc(Cl)c4)ccc3n2)CC1` has an IC50 of 770 nM. In the case of `COc1ccc(O)c(Cc2cnc3nc(N)nc(N)c3c2C)c1`, the IC50 is reported as 40 nM. In the case of `Cc1nccn1CCNC(=O)CN1CCC2(CCC1=O)CC(=O)c1ccccc1O2` (stereo not drawn), the IC50 is reported as 800 nM. With `O=C(Nc1cccc(N2CCC(NCCCc3ccncc3)CC2)c1)c1cccc(C(F)(F)F)c1` the IC50 was 850 nM. `Nc1nc(N)c2c(Cc3ccc(Br)cc3)cccc2n1` was tested, and the IC50 was 770 nM. Molecule `CON(C)C(=O)[C@@H](CCCCNC(=O)OCc1ccccc1)NC(=O)OC(C)(C)C` has an IC50 of 190 nM. `Cc1ccc2c(=O)cc(CCc3cccc(F)c3F)n(CC(=O)N(Cc3ccc(-c4ccc(C(F)(F)F)cc4)cc3)C3CCN(C(C)C)CC3)c2n1` showed an IC50 of 780 nM. `COc1ccc(C=NNc2cc(C)nc3ccccc23)c(OC)c1` showed an IC50 of 620 nM. `C=C[C@H]1CN2CC[C@H]1C[C@H]2[C@H](OS(=O)(=O)O)c1ccnc2ccccc12` showed an IC50 of 620 nM. `N#Cc1ccc(NC(=O)Nc2ccc3c(c2)CCN(C2CCC2)CC3)cc1` showed an IC50 of 630 nM. `COc1cccc(CCNc2nc(NCc3ccccc3)c3cc(OC)c(OC)cc3n2)c1` was tested, and the IC50 was 320 nM. `COc1ccc2nccc(N3CCC(O)(CCNCc4ccc5c(n4)NC(=O)CS5)CC3)c2n1` showed an IC50 of 650 nM. In the case of `COC(=O)C(Cc1ccccc1)C(CSCc1ccc(OC)cc1)C(=O)N[C@@H](C(=O)OC(C)(C)C)c1ccc(C(C)(C)C)cc1` (stereo partly drawn), the IC50 is reported as 1030 nM. `CCCN(CCC)c1nn2c(=O)c(C(=O)N3CCN(Cc4ccccc4)CC3)cnc2s1` showed an IC50 of 1000 nM. Work on `COc1ccc(-c2cccc(NC(=O)c3cccc(C#N)c3)c2)cc1CN1CCNCC1` yielded an IC50 of 730 nM. `COc1ccc(-c2cnc(N)c(-c3ccc(O)c(OC)c3)c2)cn1` was tested, and the IC50 was 880 nM. `C(=N\Nc1nccc2sc(-c3cccnc3)cc12)/c1ccncc1` showed an IC50 of 210 nM. For `CCNc1cc(C(=O)N[C@@H](Cc2ccccc2)[C@H](O)CNC2(CC)CC2)cc(N2CCCCS2(=O)=O)c1`, the IC50 was 1610 nM. `CC(c1cccc(Nc2nccc(-c3c(-c4cccc(NC(=O)c5c(F)cccc5F)c4)nn4ccccc34)n2)c1)S(C)(=O)=O` (stereo not drawn) was tested, and the IC50 was 60 nM. `CC(=O)Nc1ccc(S(=O)(=O)Nc2ccc(Nc3nc(C)cc(N4CCCCC4)n3)cc2)cc1` showed an IC50 of 780 nM. With `CCN(CC)CCNc1ccnc2[nH]c3ccc(C)cc3c12` the IC50 was 670 nM. With `Cc1ncccc1C(=O)Nc1cccc(-c2cccc(-c3nc4ccc(C(F)(F)F)cc4[nH]3)c2)c1` the IC50 was 600 nM. Molecule `CC(C)N1CCC(N(Cc2ccc(-c3ccc(C(F)(F)F)cc3)cc2)C(=O)CCCn2c(CCc3cccc(F)c3F)nc(=O)c3ccccc32)CC1` has an IC50 of 970 nM. `Cc1ccccc1N1CCN(c2ccc(C(=O)NC(C)C)cn2)CC1` was tested, and the IC50 was 900 nM. Work on `CC(CCCCOCCc1ccccc1)NCC(O)c1cc(Cl)c(N)c(Cl)c1` (stereo not drawn) yielded an IC50 of 790 nM. `Cc1cc(N2CCCN(C)CC2)nc(Nc2ccc(Br)cc2)n1` was tested, and the IC50 was 720 nM. For `OC[C@H]1CCCN1CC#Cc1cc2c(Nc3ccc(OCc4cccc(F)c4)c(Cl)c3)ncnc2s1`, the IC50 was 1210 nM. With `CC(C)CNC(=O)c1cncc(-c2ccc(CN3CCC(N4CCCC4)CC3)cc2)c1` the IC50 was 690 nM. `CN(C)S(=O)(=O)n1ccc2c3c(N)nc(N)nc3ccc21` showed an IC50 of 50 nM. `CCN(CC)CCOc1ccc(C(O)(C#CC(O)(c2ccc(OCCN(CC)CC)cc2)c2ccc([N+](=O)[O-])cc2)c2ccc([N+](=O)[O-])cc2)cc1` (stereo not drawn) was tested, and the IC50 was 1730 nM. `COCCn1c(-c2nc(-c3ccc(F)cc3)cnc2N)nc2ccccc21` showed an IC50 of 870 nM. With `O=C(Nc1ccc(CN2CCOCC2)cc1)c1ccc(-c2ccc(Cl)cc2)o1` the IC50 was 860 nM. With `Fc1ccc(CN2CCN(c3ncnc4cc(-c5ccccc5)sc34)CC2)cc1` the IC50 was 1020 nM. `Cc1ccc(CNc2cc(C(F)(F)F)nc(-c3ccc(S(C)(=O)=O)cc3)n2)cc1` showed an IC50 of 500 nM. `O=C(Cc1cnc[nH]1)Nc1ccc(-c2ccc(-c3nc4ccc(C(F)(F)F)cc4[nH]3)s2)cc1` showed an IC50 of 660 nM. With `O=C(Nc1ccc(C(F)(F)F)cc1)c1cccc(S(=O)(=O)NCC2CCCN(CC3CCCCC3)C2)c1` (stereo not drawn) the IC50 was 750 nM.
